Experimental data reported in US20250381179A1, “CHROMAN-BASED COMPOUNDS FOR TREATING CANCER” (priority 2024, published 2025).

Assay: Phase 1 study: safety and tolerability (TEAEs, NCI CTCAE v5.0)
Protocol: The study employed an open-label, 3+3 design, with the option of adding backfill patients to each cohort cleared and deemed safe. […] Tumor responses were assessed every 2 cycles using RECIST v1.1 criteria. […] The study also involves an ongoing dose escalation study where participants receive 100 mg, 200 mg, 300 mg, 400 mg, and 600 mg once daily (QD) dose levels.
Safety was assessed through the analysis of the reported incidence of treatment-emergent AEs. Treatment-emergent AEs are those with an onset on or after the initiation of therapy and will be graded according to NCI CTCAE Version 5.0. Other safety endpoints, including laboratory results, vital signs, and ECG findings, were summarized for all patients in the Safety set.

## O=C1CC[C@H](N2Cc3cc(N4CCN(CC5CCN(c6ccc([C@@H]7c8ccc(O)cc8OC[C@@H]7c7ccccc7)cc6F)CC5)CC4)ccc3C2=O)C(=O)N1 [compound (1-g), (S)-3-(5-(4-((1-(2-fluoro-4-((3S,4R)-7-hydroxy-3-phenylchroman-4-yl)phenyl)piperidin-4-yl)methyl)piperazin-1-yl)-1-oxoisoindolin-2-yl)piperidine-2,6-dione]
100 mg QD (N = 4)
  Patients with Any Compound (1-g) related TEAE: 2 (50.0) n (%)
  Patients with Any TEAE: 4 (100) n (%)
  TEAE: Abdominal Distension: 0 n (%)
  TEAE: Abdominal Pain: 1 (25.0) n (%)
  TEAE: Acute Kidney Injury: 0 n (%)
  TEAE: Adrenal Insufficiency: 0 n (%)
  TEAE: Alopecia: 0 n (%)
  TEAE: Anaemia: 0 n (%)
  TEAE: Anxiety: 0 n (%)
  TEAE: Arthralgia: 0 n (%)
  TEAE: Axillary Vein Thrombosis: 0 n (%)
  TEAE: Back Pain: 0 n (%)
  TEAE: Basal Cell Carcinoma: 1 (25.0) n (%)
  TEAE: Breast Pain: 0 n (%)
  TEAE: Confusional State: 1 (25.0) n (%)
  TEAE: Constipation: 0 n (%)
  TEAE: Cough: 0 n (%)
  TEAE: Covid-19 Pneumonia: 1 (25.0) n (%)
  TEAE: Dehydration: 3 (75.0) n (%)
  TEAE: Diarrhoea: 1 (25.0) n (%)
  TEAE: Dizziness: 0 n (%)
  TEAE: Dysgeusia: 0 n (%)
  TEAE: Dyspepsia: 1 (25.0) n (%)
  TEAE: Dyspnoea: 0 n (%)
  TEAE: Dysuria: 0 n (%)
  TEAE: Eructation: 0 n (%)
  TEAE: Fall: 1 (25.0) n (%)
  TEAE: Fatigue: 1 (25.0) n (%)
  TEAE: Flatulence: 0 n (%)
  TEAE: Fracture: 0 n (%)
  TEAE: Fungal Infection: 0 n (%)
  TEAE: Haematoma: 0 n (%)
  TEAE: Hot Flush: 1 (25.0) n (%)
  TEAE: Hyperglycaemia: 0 n (%)
  TEAE: Hyperhidrosis: 1 (25.0) n (%)
  TEAE: Hypokalaemia: 0 n (%)
  TEAE: Hypotension: 0 n (%)
  TEAE: Influenza Like Illness: 0 n (%)
  TEAE: Insomnia: 1 (25.0) n (%)
  TEAE: Lower Respiratory Tract Congestion: 0 n (%)
  TEAE: Lymphocyte Count Decreased: 0 n (%)
  TEAE: Muscle Spasm: 0 n (%)
  TEAE: Muscular Weakness: 0 n (%)
  TEAE: Musculoskeletal Stiffness: 0 n (%)
  TEAE: Nail Disorder: 0 n (%)
  TEAE: Nasal Congestion: 0 n (%)
  TEAE: Nausea: 1 (25.0) n (%)
  TEAE: Neutrophil Count Decreased: 1 (25.0) n (%)
  TEAE: Oedema Peripheral: 0 n (%)
  TEAE: Ophthalmic Migraine: 0 n (%)
  TEAE: Oral Pain: 0 n (%)
  TEAE: Pain In Extremity: 0 n (%)
  TEAE: Pharyngitis: 0 n (%)
  TEAE: Platelet Count Decreased: 0 n (%)
  TEAE: Pleural Effusion: 0 n (%)
  TEAE: Pneumonia: 1 (25.0) n (%)
  TEAE: Productive Cough: 0 n (%)
  TEAE: Rash Maculo-Papular: 1 (25.0) n (%)
  TEAE: Rhinitis Allergic: 0 n (%)
  TEAE: Rib Fracture: 1 (25.0) n (%)
  TEAE: Seizure: 0 n (%)
  TEAE: Sepsis: 0 n (%)
  TEAE: Tremor: 1 (25.0) n (%)
  TEAE: Upper Respiratory Tract Infection: 1 (25.0) n (%)
  TEAE: Urinary Tract Infection: 0 n (%)
  TEAE: Vaginal Haemorrhage: 0 n (%)
  TEAE: Vomiting: 0 n (%)
  related TEAE: Alopecia: 0 n (%)
  related TEAE: Arthralgia: 0 n (%)
  related TEAE: Constipation: 0 n (%)
  related TEAE: Diarrhea: 1 (25.0) n (%)
  related TEAE: Dysgeusia: 0 n (%)
  related TEAE: Eructation: 0 n (%)
  related TEAE: Fatigue: 0 n (%)
  related TEAE: Flatulence: 0 n (%)
  related TEAE: Hot Flush: 1 (25.0) n (%)
  related TEAE: Hyperhidrosis: 0 n (%)
  related TEAE: Nail Disorder: 0 n (%)
  related TEAE: Nausea: 1 (25.0) n (%)
  related TEAE: Neutrophil Count Decreased: 1 (25.0) n (%)
  related TEAE: Platelet Count Decreased: 0 n (%)
  related TEAE: Tremor: 1 (25.0) n (%)
  related TEAE: Vomiting: 0 n (%)
200 mg QD (N = 12)
  Patients with Any Compound (1-g) related TEAE: 3 (25.0) n (%)
  Patients with Any TEAE: 11 (91.7) n (%)
  TEAE: Abdominal Distension: 0 n (%)
  TEAE: Abdominal Pain: 1 (8.3) n (%)
  TEAE: Acute Kidney Injury: 0 n (%)
  TEAE: Adrenal Insufficiency: 1 (8.3) n (%)
  TEAE: Alopecia: 0 n (%)
  TEAE: Anaemia: 1 (8.3) n (%)
  TEAE: Anxiety: 0 n (%)
  TEAE: Arthralgia: 2 (16.7) n (%)
  TEAE: Axillary Vein Thrombosis: 1 (8.3) n (%)
  TEAE: Back Pain: 1 (8.3) n (%)
  TEAE: Basal Cell Carcinoma: 0 n (%)
  TEAE: Breast Pain: 1 (8.3) n (%)
  TEAE: Confusional State: 0 n (%)
  TEAE: Constipation: 1 (8.3) n (%)
  TEAE: Cough: 1 (8.3) n (%)
  TEAE: Covid-19 Pneumonia: 0 n (%)
  TEAE: Dehydration: 1 (8.3) n (%)
  TEAE: Diarrhoea: 0 n (%)
  TEAE: Dizziness: 0 n (%)
  TEAE: Dysgeusia: 0 n (%)
  TEAE: Dyspepsia: 0 n (%)
  TEAE: Dyspnoea: 1 (8.3) n (%)
  TEAE: Dysuria: 1 (8.3) n (%)
  TEAE: Eructation: 0 n (%)
  TEAE: Fall: 1 (8.3) n (%)
  TEAE: Fatigue: 2 (16.7) n (%)
  TEAE: Flatulence: 0 n (%)
  TEAE: Fracture: 1 (8.3) n (%)
  TEAE: Fungal Infection: 0 n (%)
  TEAE: Haematoma: 0 n (%)
  TEAE: Hot Flush: 1 (8.3) n (%)
  TEAE: Hyperglycaemia: 1 (8.3) n (%)
  TEAE: Hyperhidrosis: 1 (8.3) n (%)
  TEAE: Hypokalaemia: 1 (8.3) n (%)
  TEAE: Hypotension: 0 n (%)
  TEAE: Influenza Like Illness: 1 (8.3) n (%)
  TEAE: Insomnia: 1 (8.3) n (%)
  TEAE: Lower Respiratory Tract Congestion: 1 (8.3) n (%)
  TEAE: Lymphocyte Count Decreased: 1 (8.3) n (%)
  TEAE: Muscle Spasm: 0 n (%)
  TEAE: Muscular Weakness: 1 (8.3) n (%)
  TEAE: Musculoskeletal Stiffness: 1 (8.3) n (%)
  TEAE: Nail Disorder: 0 n (%)
  TEAE: Nasal Congestion: 1 (8.3) n (%)
  TEAE: Nausea: 1 (8.3) n (%)
  TEAE: Neutrophil Count Decreased: 1 (8.3) n (%)
  TEAE: Oedema Peripheral: 0 n (%)
  TEAE: Ophthalmic Migraine: 1 (8.3) n (%)
  TEAE: Oral Pain: 0 n (%)
  TEAE: Pain In Extremity: 1 (8.3) n (%)
  TEAE: Pharyngitis: 1 (8.3) n (%)
  TEAE: Platelet Count Decreased: 0 n (%)
  TEAE: Pleural Effusion: 0 n (%)
  TEAE: Pneumonia: 1 (8.3) n (%)
  TEAE: Productive Cough: 1 (8.3) n (%)
  TEAE: Rash Maculo-Papular: 1 (8.3) n (%)
  TEAE: Rhinitis Allergic: 0 n (%)
  TEAE: Rib Fracture: 0 n (%)
  TEAE: Seizure: 1 (8.3) n (%)
  TEAE: Sepsis: 1 (8.3) n (%)
  TEAE: Tremor: 0 n (%)
  TEAE: Upper Respiratory Tract Infection: 1 (8.3) n (%)
